Experimental data: US12234212B2, “Peptide conjugates of microtubule-targeting agents as therapeutics” (Cybrexa 3, Inc., priority 2019, dated 2025)

Legend:
HeLa cells = test: Growth delay assay, HeLa; format: cell-based; conditions: 96 hours after addition of drug, cell count (Hoechst)
Experimental: (§1) Cells were plated in 96 well black walled-clear bottom plates (Griener), DLD-1 WT cells at 2500 cells per well, FaDu, and HeLa cells at 5000 cells per well, and HCT116 at 3000 cells per well, in growth media containing […]. Cells were allowed to adhere at room temperature for 60 minutes before returning to a 37 C, 5% CO2 incubator. After 24 hours, media was removed and replaced with fresh growth media containing various drug concentrations. Each drug concentration was added in triplicate. Non-drug treated controls contained growth media only. Cells were returned to the incubator. Ninety-six hours after addition of drug, cells were fixed with […] for 20 minutes and stained with Hoechst at 1 μg/mL. The plates were imaged on a Cytation 5 auto imager (BioTek) and cells were counted using CellProfiler (http://cellprofiler.org). The percent cell growth delay was calculated and data plotted using GraphPad Prism

DLD-1 WT cells = test: Growth delay assay, DLD-1; format: cell-based; conditions: DLD-1 cells, 96 hours after addition of drug, cell count (Hoechst)
Experimental: as §1

FaDu = test: Growth delay assay, FaDu; format: cell-based; conditions: FaDu cells, 96 hours after addition of drug, cell count (Hoechst)
Experimental: as §1

HCT116 = test: Growth delay assay, HCT116; format: cell-based, human; conditions: HCT116 cells, 96 hours after addition of drug, cell count (Hoechst)
Experimental: as §1

[1] = tested on: nude mice bearing HCT116 colorectal flank tumors; test: Mouse colorectal cancer model, Kaplan-Meier survival; format: in vivo; conditions: IP, QDX4; DM4 0.42 μmole/kg; Compound 5 0.21-0.42 μmole/kg; post-dosing period
Experimental: Six-week-old female athymic nude Foxn^nu mice were obtained from Taconic Labs (Cat #NCRNU-F) and were housed 5 per cage on Alpha-Dri bedding in a disposable caging system. Human HCT116 cells derived from colorectal carcinoma were diluted 1:1 in Phenol Red-free Matrigel and subcutaneously implanted into the left flank of each mouse at a density of 2.5×10^6 cells in 100 μL. When xenografts reached a mean volume of 100-200 mm^3, mice were randomized into groups and treated as detailed in the table below. Mice were administered intraperitoneal (IP) doses of vehicle or 0.21, 0.29, 0.35, 0.42 μmole/kg Compound 5 (equivalent to 1.1, 1.4, 1.7, or 2 mg/kg Compound 5) or 0.42 μmole/kg unconjugated DM4 (equivalent to 0.33 mg/kg unconjugated DM4). Doses were prepared by diluting 0.1 mg/μL DMSO stocks in 5% mannitol in citrate buffer and were administered QDX4 with a two day interval between the second and third doses, at a volume of 12 mL/kg (300 μL per 25 g mouse). Xenograft tumors were measured by calipers and volume was calculated using the equation for ellipsoid volume: Volume=π/6×(length)×(width)^2. Body weight of animals was measured at the same time as tumor volume assessment. Animals were removed from the study due to death, tumor size exceeding 2000 mm^3 or loss of >20% body weight. Kaplan-Meier analysis was used to evaluate survival rate based on death or removal from study.

[2] = tested on: T1, Biotin-labeled human tubulin derived from HeLa cells (β-tubulin); test: Kinetic analysis of conjugate binding (Biacore surface plasmon resonance); conditions: Biacore S200, 25° C., immobilized tubulin; read-out: KD (affinity constant, steady state) for β-tubulin
T1 construct: fused on or other part: Biotin label, used for capture on a streptavidin sensor chip
Experimental: Binding experiments were performed using a Biacore S200 instrument. A Series S sensor chip with pre-immobilized streptavidin was conditioned with 1 M NaCl in 50 mM NaOH. Biotin-labeled human tubulin derived from HeLa cells was immobilized to the sensor chip at a concentration of 125 μg/mL in HBS-P+ buffer at a flow rate of 10 μl/min. A final 3000 RU (response units) of protein was directly immobilized to the chip. After tubulin immobilization, the sensor chip was washed with 50% isopropanol, 50 mM NaOH and 1 M NaCl and subsequently allowed to equilibrate in assay buffer for 4 hours. A streptavidin-biotin capture blank (reference FC) was used to monitor non-specific binding.
To collect kinetic binding data, Compound 5 diluted in assay buffer was injected over the flow cells at concentrations ranging from 100 μM to 0.048 μM and 50 μM to 0.024 μM, at a flow rate of 60 μL/minute and a temperature of 25° C. The complex was allowed to dissociate for 60 seconds. Binding of compound to tubulin was monitored in real time to obtain on (Ka) and off (Koff) rates. The affinity constant (KD) was calculated by steady state kinetics.

SMILES | IC50 (HeLa cells; Homo sapiens) [nM] | IC50 (DLD-1 WT cells; Homo sapiens) [nM] | IC50 (FaDu; Homo sapiens) [nM] | IC50 (HCT116; Homo sapiens, HCT-116) [nM] | IC50 (HeLa cells) [nM] | IC50 (DLD-1 WT cells) [nM] | IC50 (FaDu) [nM] | IC50 (HCT116) [nM] | survival / systemic toxicity (Kaplan-Meier) [1] | Kd [2] [nM]
COc1cc2cc(c1Cl)N(C)C(=O)C[C@H](OC(=O)[C@H](C)N(C)C(=O)CCS)C1(C)O[C@H]1[C@H](C)[C@@H]1C[C@@](O)(NC(=O)O1)[C@H](OC)/C=C/C=C(\C)C2 (stereo partly drawn) [R^2SH-1, [(1S,2R,3S,6S,16E,18E,20R,21S)-11-chloro-21-hydroxy-12,20-dimethoxy-2,5,9,16-tetramethyl-8,23-dioxo-4,24-dioxa-9,22-diazatetracyclo[19.3.1.110,14.03,5]hexacosa-10(26),11,13,16,18-pentaen-6-yl] (2S)-2-[methyl(3-sulfanylpropanoyl)amino]propanoate] | 2.6 | 9.8 | 2.8 | 4.3 | – | – | – | – | – | –
COc1cc2cc(c1Cl)N(C)C(=O)C[C@H](OC(=O)[C@H](C)N(C)C(=O)CCSSC[C@H](NC(=O)[C@H](Cc1c[nH]c3ccccc13)NC(=O)[C@H](CC(C)C)NC(=O)[C@H](CC(C)C)NC(=O)[C@H](CC(=O)O)NC(=O)[C@H](CC(C)C)NC(=O)[C@H](CC(C)C)NC(=O)[C@H](CC(C)C)NC(=O)[C@@H](NC(=O)[C@H](CC(=O)O)NC(=O)[C@@H](NC(=O)[C@@H]1CCCN1C(=O)[C@H](Cc1ccccc1)NC(=O)[C@H](CC(C)C)NC(=O)[C@H](CC(C)C)NC(=O)[C@H](CC(=O)O)NC(=O)[C@H](CC(C)C)NC(=O)[C@H](Cc1ccc(O)cc1)NC(=O)[C@H](C)NC(=O)[C@H](CCCNC(=N)N)NC(=O)[C@H](Cc1c[nH]c3ccccc13)NC(=O)[C@@H]1CCCN1C(=O)[C@H](CC(N)=O)NC(=O)[C@H](CCC(N)=O)NC(=O)[C@H](CC(=O)O)NC(=O)[C@H](CC(=O)O)NC(=O)[C@H](C)N)[C@@H](C)O)[C@@H](C)O)C(=O)NCC(=O)O)[C@]1(C)O[C@H]1[C@H](C)[C@@H]1C[C@@](O)(NC(=O)O1)[C@H](OC)/C=C/C=C(\C)C2 [Compound 1] | – | – | – | – | 7.4 | 60.5 | 10.4 | 21.8 | – | –
COc1cc2cc(c1Cl)N(C)C(=O)C[C@H](OC(=O)[C@H](C)N(C)C(=O)CCC(C)(C)S)C1(C)O[C@H]1[C@H](C)[C@@H]1C[C@@](O)(NC(=O)O1)[C@H](OC)/C=C/C=C(\C)C2 (stereo partly drawn) [R^2SH-2, [(1S,2R,3S,6S,16E,18E,20R,21S)-11-chloro-21-hydroxy-12,20-dimethoxy-2,5,9,16-tetramethyl-8,23-dioxo-4,24-dioxa-9,22-diazatetracyclo[19.3.1.110,14.03,5]hexacosa-10,12,14(26),16,18-pentaen-6-yl] (2S)-2-[methyl-(4-methyl-4-sulfanyl-pentanoyl)amino]propanoate] | 0.02 | 0.45 | 0.13 | 0.2 | – | – | – | – | spontaneous death of half of the DM4 group of animals | 3550
COc1cc2cc(c1Cl)N(C)C(=O)C[C@H](OC(=O)[C@H](C)N(C)C(=O)CCC(C)(C)SSC[C@H](NC(=O)[C@H](Cc1c[nH]c3ccccc13)NC(=O)[C@H](CC(C)C)NC(=O)[C@H](CC(C)C)NC(=O)[C@H](CC(=O)O)NC(=O)[C@H](CC(C)C)NC(=O)[C@H](CC(C)C)NC(=O)[C@H](CC(C)C)NC(=O)[C@@H](NC(=O)[C@H](CC(=O)O)NC(=O)[C@@H](NC(=O)[C@@H]1CCCN1C(=O)[C@H](Cc1ccccc1)NC(=O)[C@H](CC(C)C)NC(=O)[C@H](CC(C)C)NC(=O)[C@H](CC(=O)O)NC(=O)[C@H](CC(C)C)NC(=O)[C@H](Cc1ccc(O)cc1)NC(=O)[C@H](C)NC(=O)[C@H](CCCNC(=N)N)NC(=O)[C@H](Cc1c[nH]c3ccccc13)NC(=O)[C@@H]1CCCN1C(=O)[C@H](CC(N)=O)NC(=O)[C@H](CCC(N)=O)NC(=O)[C@H](CC(=O)O)NC(=O)[C@H](CC(=O)O)NC(=O)[C@H](C)N)[C@@H](C)O)[C@@H](C)O)C(=O)NCC(=O)O)[C@]1(C)O[C@H]1[C@H](C)[C@@H]1C[C@@](O)(NC(=O)O1)[C@H](OC)/C=C/C=C(\C)C2 [Compound 5] | – | – | – | – | – | – | – | – | safely delivers amounts of DM4 in vivo | –
